Columns and labels:
[1] = system: primary cultured guinea-pig urinary bladder (GPB) cells; assay: Membrane hyperpolarization (MHP) assay, DiBAC(4)3 / FLIPR; type: cell-based; conditions: Cavia porcellus; for EC50: concentration that elicits 50% of the maximal response for the test sample; for Emax: maximal steady-state hyperpolarization, normalized to response with 10 μM P1075 (100%)
Procedure, shortened: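 Primary smooth-muscle cells from male guinea-pig bladder, grown to confluence, loaded 30 min at 37° C with 5 μM DiBAC(4)3 in HEPES buffer pH 7.4. Fluorescence drop on FLIPR followed 25 min after compound; steady-state hyperpolarization normalized to 10 μM P1075 (100%), EC50 from four-parameter fit of five concentrations.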

SMILES	melting point [°C]	EC50 [1] [nM]	Emax [1] [%]
N#CN=C(Nc1cccnc1)NC(NC(=O)c1ccc(Cl)cc1)C1CCCCC1 (stereo not drawn) [Example 61, 4-chloro-N-[{[(cyanoimino)(3-pyridinylamino)methyl]amino}(cyclohexyl)methyl]benzamide]	190 to 192	330	36
CC(C)(C)C(NC(=O)c1ccc(Cl)cc1)NC(=NC#N)Nc1cccc(F)c1 (stereo not drawn) [Example 70, 4-chloro-N-(1-{[(cyanoimino)(3-fluoroanilino)methyl]amino}-2,2-dimethylpropyl)benzamide]	167 to 170	320	74
N#CN=C(NCNC(=O)c1ccc(Cl)cc1)Nc1cccnc1 [Example 85, 4-chloro-N-({[(cyanoimino)(3-pyridinylamino)methyl]amino}methyl)benzamide]	196 to 197	> 10000	< 20
CC(C)(C1CCCCC1)C(NC(=O)c1ccc(Cl)cc1)NC(=NC#N)Nc1cccnc1 (stereo not drawn) [Example 93, 4-chloro-N-(1-{[(cyanoimino)(3-pyridinylamino)methyl]amino}-2-cyclohexyl-2-methylpropyl)benzamide]	181 to 183	140	75
CN(C)CC(C)(C)C(NC(=O)c1ccc(Cl)cc1)NC(=NC#N)Nc1cccnc1 (stereo not drawn) [Example 97, 4-chloro-N-[1-{[(cyanoimino)(3-pyridinylamino)methyl]amino}-3-(dimethylamino)-2,2-dimethylpropyl]benzamide]	101 to 103	1600	74
CSCCC(NC(=O)c1ccc(Cl)cc1)NC(=NC#N)Nc1cccnc1 (stereo not drawn) [Example 99, 4-chloro-N-[1-{[(cyanoimino)(3-pyridinylamino)methyl]amino}-3-(methylsulfanyl)propyl]benzamide]	104 to 105	3500	84
CC(C)(Cc1ccccc1)C(NC(=O)c1ccc(Cl)cc1)NC(=NC#N)Nc1cccnc1 (stereo not drawn) [Example 102, 4-chloro-N-(1-{[(cyanoimino)(3-pyridinylamino)methyl]amino}-2,2-dimethyl-3-phenylpropyl)benzamide]	182 to 183	> 10000	< 20
C=CCC(C)(C)C(NC(=O)c1ccc(Cl)cc1)NC(=N[N+](=O)[O-])Nc1cccnc1 (stereo not drawn) [Example 127, 4-chloro-N-(1-{[(nitroimino)(3-pyridinylamino)methyl]amino}-2,2-dimethyl-4-pentenyl)benzamide]	200 to 203	1200	65
CCC(CC)(CCC#N)C(NC(=O)c1ccc(Cl)cc1)NC(=N[N+](=O)[O-])Nc1cccnc1 (stereo not drawn) [Example 132, 4-chloro-N-(4-cyano-1-{[(nitroimino)(3-pyridinylamino)methyl]amino}-2,2-diethylbutyl)benzamide]	100 to 110	130	124

The next lines start with results.

melting point [°C]	EC50 [1] [nM]	SMILES	Emax [1] [%]
181 to 183	330	CC(C)(C)CC(NC(=O)c1ccc(Cl)cc1)NC(=NC#N)Nc1cccnc1 (stereo not drawn) [Example 62, 4-chloro-N-(1-{[(cyanoimino)(3-pyridinylamino)methyl]amino}-3,3-dimethylbutyl)benzamide]	81
182 to 184	4400	CC(C)C(NC(=O)c1ccc(Cl)cc1)NC(=NC#N)Nc1cccnc1 (stereo not drawn) [Example 63, 4-chloro-N-(1-{[(cyanoimino)(3-pyridinylamino)methyl]amino}-2-methylpropyl)benzamide]	73
136 to 138	400	N#CN=C(Nc1cccnc1)NC(NC(=O)c1ccc(Cl)cc1)C(F)(F)F (stereo not drawn) [Example 64, 4-chloro-N-(1-{[(cyanoimino)(3-pyridinylamino)methyl]amino}-2,2,2-trifluoroethyl)benzamide]	89
192 to 193	430	CCC(CC)C(NC(=O)c1ccc(Cl)cc1)NC(=C[N+](=O)[O-])Nc1cccnc1 (stereo not drawn) [Example 68, 4-chloro-N-(2-ethyl-1-{[2-nitro-1-(3-pyridinylamino)ethenyl]amino}butyl)benzamide]	99
181 to 183	6000	CCC(NC(=O)c1ccc(Cl)cc1)NC(=NC#N)Nc1cccnc1 (stereo not drawn) [Example 84, 4-chloro-N-(1-{[(cyanoimino)(3-pyridinylamino)methyl]amino}propyl)benzamide]	69
202 to 203	840	N#CN=C(Nc1cccnc1)NC(CC12CC3CC(CC(C3)C1)C2)NC(=O)c1ccc(Cl)cc1 (stereo not drawn) [Example 95, N-(2-(1-adamantyl)-1-{[(cyanoimino)(3-pyridinylamino)methyl]amino}ethyl)-4-chlorobenzamide]	97
209 to 210	180	N#CN=C(Nc1cccnc1)NC(NC(=O)c1ccc(Cl)cc1)C12CC3CC(CC(C3)C1)C2 (stereo not drawn) [Example 100, N-(1-adamantyl{[(cyanoimino)(3-pyridinylamino)methyl]amino}methyl)-4-chlorobenzamide]	87
194 to 195	6100	CCC1(C(NC(=O)c2ccc(Cl)cc2)NC(=NC#N)Nc2cccnc2)COCOC1 (stereo not drawn) [Example 101, 4-chloro-N-[{[(cyanoimino)(3-pyridinylamino)methyl]amino}(5-ethyl-1,3-dioxan-5-yl)methyl]benzamide]	59
180 to 181	53	CC(C)(C)C(NC(=O)c1ccc(Br)cc1)NC(=NC#N)Nc1cccnc1 (stereo not drawn) [Example 105, 4-bromo-N-(1-{[(cyanoimino)(3-pyridinylamino)methyl]amino}-2,2-dimethylpropyl)benzamide]	106
205 to 207	470	CC(C)(Cc1ccccc1)C(NC(=O)c1ccc(Cl)cc1)NC(=N[N+](=O)[O-])Nc1cccnc1 (stereo not drawn) [Example 128, 4-chloro-N-(1-{[(nitroimino)(3-pyridinylamino)methyl]amino}-2,2-dimethyl-3-phenylpropyl)benzamide]	116
217 to 218	120	CC1=C(CC(NC(=O)c2ccc(Cl)cc2)NC(=N[N+](=O)[O-])Nc2cccnc2)C(C)(C)CCC1 (stereo not drawn) [Example 129, 4-chloro-N-[1-{[(nitroimino)(3-pyridinylamino)methyl]amino}-2-(2,6,6-trimethyl-1-cyclohexen-1-yl)ethyl]benzamide]	132
201 to 203	530	CC(C)(C1CCCCC1)C(NC(=O)c1ccc(Cl)cc1)NC(=N[N+](=O)[O-])Nc1cccnc1 (stereo not drawn) [Example 130, 4-chloro-N-(1-{[(nitroimino)(3-pyridinylamino)methyl]amino}-2-cyclohexyl-2-methylpropyl)benzamide]	147
175 to 180	2000	C=CCOCC(CC)(COCC=C)C(NC(=O)c1ccc(Cl)cc1)NC(=N[N+](=O)[O-])Nc1cccnc1 (stereo not drawn) [Example 131, N-(2,2-bis[(allyloxy)methyl]-1-{[(nitroimino)(3-pyridinylamino)methyl]amino}butyl)-4-chlorobenzamide]	53
